Laboratory results as given in PubChem BioAssay (NCI).
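Where inhibition never reached the appropriate level, the endpoint shown equals the highest concentration tested. Otherwise, values were interpolated linearly from a five-concentration, 48-hour dose response in 96-well plates. Definition used: TGI = concentration required for complete inhibition of growth.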 Where a SMILES comes first, the peptide text is derived from it. [ ]: non-standard residue; d: D form. The star is where a group is joined. ξ: configuration not given here. Propanoyl(3-(4-MeO-Ph)) = COc1ccc(CCC(=O)*)cc1; Thr(3ξ) = CC(O)[C@H](N)C(=O)O; dNMeL = CN[C@H](CC(C)C)C(=O)O; ξLac = CC(O)C(=O)O

Assays:
Assay in all cases: growth of human tumour cells (NCI), 48 h
DU-145 prostate = test system: DU-145 prostate
HOP-62 NSCLC = test system: HOP-62 NSCLC
HT29 colon = test system: HT29 colon
MDA-MB-231 breast = test system: MDA-MB-231 breast
NCI-H460 lung = test system: NCI-H460 lung
SK-MEL-2 melanoma = test system: SK-MEL-2 melanoma
SK-OV-3 ovarian = test system: SK-OV-3 ovarian
SN12C renal = test system: SN12C renal
SW-620 colon = test system: SW-620 colon
UO-31 renal = test system: UO-31 renal

Row | SMILES | TGI (DU-145 prostate) [µM] | TGI (HOP-62 NSCLC) [µM] | TGI (HT29 colon) [µM] | TGI (MDA-MB-231 breast) [µM] | TGI (NCI-H460 lung) [µM] | TGI (SK-MEL-2 melanoma) [µM] | TGI (SK-OV-3 ovarian) [µM] | TGI (SN12C renal) [µM] | TGI (SW-620 colon) [µM] | TGI (UO-31 renal) [µM]
1 | Cc1[nH]c(=O)nc2nc3ccc(Cl)cc3c(NC(C)(CO)CO)c12 | > 100 | 61.3 | > 100 | > 81 | > 100 | > 100 | > 100 | > 100 | > 100 | 10.4
2 | COC(=O)c1c(O)ccc2c1c1c(n2Cc2ccccc2OC)C(=O)c2ccccc2C1 | > 100 | > 100 | > 100 | > 100 | > 100 | > 100 | > 100 | 74.9 | > 100 | > 100
3 | Cc1cc2c(c(C(=O)NCCC(=O)N[C@@H](C)C(=O)OCc3ccccc3)c1)Oc1c(cc(C)cc1C(=O)NCCC(=O)N[C@@H](C)C(=O)OCc1ccccc1)S2 | > 100 | > 100 | > 100 | > 100 | > 100 | > 100 | > 100 | > 100 | > 100 | > 100
4 | CCCCCCCCCCCCCCCCCCOc1ccc(/C=C/C2=[N+](CCCl)CCO2)cc1 | > 100 | > 100 | > 100 | > 100 | > 100 | > 100 | > 100 | > 100 | > 100 | > 100
5 | CSC1(SC)N2Cc3ccccc3N=C2C1(c1ccccc1)c1ccccc1 | > 100 | > 100 | > 100 | > 100 | 64.3 | > 58.1 | > 100 | > 64.1 | > 63.7 | > 100
6 | COC(=O)[C@@H](NC(=O)[C@@H](CC(C)C)N(C)C(=O)[C@@H]1CCCN1C(=O)C(C)O)C(C)OC(=O)CCc1ccc(OC)cc1 (stereo partly drawn) (H-[ξLac]P[dNMeL][Thr(3ξ)](Propanoyl(3-(4-MeO-Ph)))-OMe) | > 100 | > 100 | > 100 | > 100 | > 100 | > 100 | > 100 | > 100 | > 100 | > 100
7 | Cc1ccc(C(=O)C2=CN=C3C(=O)N(c4ccccc4)N(C)C3(C)C2=N)cc1 (stereo not drawn) | > 100 | – | – | > 100 | > 100 | > 100 | > 100 | > 100 | > 100 | > 100
8 | CC(C)(C)c1cc(/C=C/C(=O)CC(=O)/C=C/c2cc(C(C)(C)C)c(O)c(C(C)(C)C)c2)cc(C(C)(C)C)c1O | > 50 | > 50 | > 50 | > 50 | > 50 | > 50 | > 50 | > 50 | > 50 | > 50
9 | COC12OC3CC4(C)C(=CC3OC(OC(C)C1O)C2O)CCC1C4CCC2(C)C(c3ccc(=O)oc3)CCC12O (stereo not drawn) | 0.00209 | 0.00311 | 0.00277 | 0.00792 | 0.00224 | 0.00448 | 0.272 | 0.00153 | 0.00731 | 0.00457
10 | COC(=O)C(Cc1ccccc1)NC(=O)c1ccc(CNC(=S)NCc2cccc(CNC(=S)NCc3ccccc3)c2)cc1 (stereo not drawn) | > 62.5 | > 62.5 | > 62.5 | > 62.5 | > 62.5 | > 62.5 | > 62.5 | > 62.5 | > 62.5 | > 62.5
